Measurements as given in ChEMBL document CHEMBL1201862, “PubChem BioAssay data set” (2004).
Calls of active or inactive are those of the source.

How the values were obtained:
cells [1] = assay type: functional, cell-based
cells [2] = assay type: functional, cell-based; remark: listed apart in the source
Cytochrome P450 3A4 [3] = target: T1, Cytochrome P450 3A4 (Homo sapiens, UniProt P08684); conditions: Potency
[4] = P. falciparum Dd2 growth inhibitors, dose response, SYBR Green, cherry-picked samples (AID 1159567); assay type: functional, cell-based
Paired box protein Pax-8 = Paired box protein Pax-8 (Homo sapiens, UniProt Q06710); experiment: inhibitors of PAX8-driven TPO luciferase reporter, dose response, RMG-I cells, cherry-pick (AID 687027); assay type: functional, cell-based;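 note: luciferase reporter driven by Pax8 target thyroperoxidase promoter measured by SteadyGlo luminescence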
[5] = cytotoxicity in OVCAR8 ovarian cancer cells, dose response, PAX8 project, cell-based, plate reader, dry powder samples (AID 743197); assay type: functional; conditions: OVCAR-8
[6] = NIH:OVCAR-3 ovarian cancer cell cytotoxicity, dose response, PAX8 inhibitor project, plate reader, dry powder samples (AID 743044); assay type: functional, cell-based
[7] = target: T2, Short transient receptor potential channel 4 (Mus musculus, UniProt Q9QUQ5); experiment: mouse TRPC4 channel activators, dose response, cell-based, HEK293 TRPC4/mu-opioid, Fluo-4 calcium (AID 434937); assay type: functional
T2 sequence (Q9QUQ5 whole entry): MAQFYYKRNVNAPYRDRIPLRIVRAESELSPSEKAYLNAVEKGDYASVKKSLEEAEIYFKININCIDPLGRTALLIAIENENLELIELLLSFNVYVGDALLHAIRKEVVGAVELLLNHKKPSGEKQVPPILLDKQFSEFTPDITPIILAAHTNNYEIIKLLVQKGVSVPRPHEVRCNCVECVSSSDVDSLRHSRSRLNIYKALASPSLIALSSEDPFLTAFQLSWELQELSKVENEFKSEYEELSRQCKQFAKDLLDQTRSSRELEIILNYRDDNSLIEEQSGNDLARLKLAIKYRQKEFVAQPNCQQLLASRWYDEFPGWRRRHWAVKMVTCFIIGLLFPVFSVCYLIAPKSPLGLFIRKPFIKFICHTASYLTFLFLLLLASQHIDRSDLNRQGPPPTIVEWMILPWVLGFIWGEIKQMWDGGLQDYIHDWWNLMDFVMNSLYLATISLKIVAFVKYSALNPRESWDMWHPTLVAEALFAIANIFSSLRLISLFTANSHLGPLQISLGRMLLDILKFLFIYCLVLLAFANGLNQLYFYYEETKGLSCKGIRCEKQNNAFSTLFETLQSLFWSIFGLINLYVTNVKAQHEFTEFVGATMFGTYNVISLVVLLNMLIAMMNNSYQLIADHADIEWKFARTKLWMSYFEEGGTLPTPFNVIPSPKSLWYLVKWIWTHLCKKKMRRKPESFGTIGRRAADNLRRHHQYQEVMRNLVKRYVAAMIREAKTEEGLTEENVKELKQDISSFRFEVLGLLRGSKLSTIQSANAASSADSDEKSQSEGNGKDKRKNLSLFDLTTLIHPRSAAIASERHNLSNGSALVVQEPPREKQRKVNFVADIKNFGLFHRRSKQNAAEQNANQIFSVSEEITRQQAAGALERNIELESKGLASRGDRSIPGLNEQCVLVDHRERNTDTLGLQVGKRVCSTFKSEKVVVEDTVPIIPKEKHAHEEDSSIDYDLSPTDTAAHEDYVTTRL

[8] = target: Voltage-dependent T-type calcium channel subunit alpha-1H (Homo sapiens, UniProt O95180); assay type: functional;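 note: channel activity triggered by adding a high calcium stimulation buffer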
[9] = THP-1 cell cytotoxicity, dose response, cytotoxicity control for non-replicating M. tuberculosis project (AID 489025); assay type: functional
cells [10] = assay type: functional
[11] = HepG2 cell cytotoxicity, dose response, cytotoxicity control for non-replicating M. tuberculosis project (AID 489018); assay type: functional; conditions: Mycobacterium tuberculosis
[12] = Vero E6 cell cytotoxicity, dose response, cytotoxicity control for non-replicating M. tuberculosis project, secondary assay (AID 492998); assay type: functional, VeroE6; conditions: Vero C1008
HEK293 = experiment: inhibitors of LMP1-driven NF-kB reporter, dose response, cell-based, HEK293, luciferase, cherry-pick (AID 588343); assay type: functional; conditions: Homo sapiens
[13] = LGR2 antagonists, dose response, cell-based, HEK293, CRE-luciferase reporter, cherry pick, set 2 (AID 743343); assay type: functional;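 note: transfected cells were stimulated with diluted bursicon conditioned medium after compound addition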
[14] = MC4R antagonists, dose response, counter-screen for LGR2 antagonist project, cell-based, plate reader, cherry pick (AID 743444); assay type: functional;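 note: transfected HEK 293 cells stimulated with alpha-MSH peptide; potency of inhibitors of the alpha-MSH evoked signal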
[15] = HepG2 cell cytotoxicity, dose response, cytotoxicity control, plate reader, cherry-pick, antagonist series (AID 743416); assay type: functional, cell-based
[16] = A549 cell cytotoxicity, dose response, cytotoxicity control, plate reader, cherry-pick, antagonist series (AID 743412); assay type: functional, cell-based
Streptokinase A = target: T3, Streptokinase A (Streptococcus pyogenes serotype M1, UniProt P10520); experiment: S. pyogenes streptokinase expression inhibitors, potency, dose response, plasminogen activation absorbance, OD405 (AID 1914); assay type: functional, Streptococcus pyogenes M1 GAS;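 note: secreted streptokinase activity via plasminogen activation per viability signal from cell pellet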
T3 sequence (P10520 whole entry): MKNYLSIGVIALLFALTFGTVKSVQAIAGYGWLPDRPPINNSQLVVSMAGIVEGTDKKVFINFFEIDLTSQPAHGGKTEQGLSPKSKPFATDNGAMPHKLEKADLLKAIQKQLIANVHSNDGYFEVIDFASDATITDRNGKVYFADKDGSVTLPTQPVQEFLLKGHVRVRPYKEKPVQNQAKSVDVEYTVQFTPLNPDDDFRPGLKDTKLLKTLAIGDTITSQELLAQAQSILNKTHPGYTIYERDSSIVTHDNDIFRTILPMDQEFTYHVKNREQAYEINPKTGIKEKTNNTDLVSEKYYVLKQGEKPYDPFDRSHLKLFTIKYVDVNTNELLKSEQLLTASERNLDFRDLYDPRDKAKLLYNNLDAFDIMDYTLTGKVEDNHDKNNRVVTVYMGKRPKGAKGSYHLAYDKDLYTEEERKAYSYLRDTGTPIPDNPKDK

[17] = microbe, parasite or virus in culture; assay type: functional; conditions: Mycobacterium tuberculosis
Cytochrome P450 2D6 = Cytochrome P450 2D6 (Homo sapiens, UniProt P10635);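 note: CYP2D6 member of a cytochrome P450 panel assay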
Cytochrome P450 3A4 [18] = target: T1, Cytochrome P450 3A4
[19] = tested on: Streptococcus sp. 'group A'; experiment: growth inhibition of control SK(-) GAS strain, dose response, counter-screen for streptokinase expression inhibitor project, luminescence, kanamycin, BacTiterGlo, confirmation (AID 1900); assay type: functional, organism-based
Streptococcus = experiment: Group A Streptococcus viability loss, dose response, counter-screen for streptokinase expression inhibitor project, luminescence, BacTiterGlo (AID 1915); assay type: functional, organism-based;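 note: potency for reduction of bacterial viability or growth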
H9c2 = experiment: cells; assay type: functional, cell-based; conditions: Rattus norvegicus, H9c2, Myocardium;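 note: confirmatory concentration-response retest of ultra-high-throughput screening hits for modulation of myocardial damage; cell death induced by hydrogen peroxide oxidative stress; compound pretreatment for 60 min then peroxide exposure for 2 h; potency is for protecting the cells against peroxide damage rather than for killing them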
Cytochrome P450 1A2 = target: T4, Cytochrome P450 1A2 (Homo sapiens, UniProt P05177);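 note: PubChem cytochrome P450 panel assay, CYP1A2 panel member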
T4 sequence (P05177 whole entry): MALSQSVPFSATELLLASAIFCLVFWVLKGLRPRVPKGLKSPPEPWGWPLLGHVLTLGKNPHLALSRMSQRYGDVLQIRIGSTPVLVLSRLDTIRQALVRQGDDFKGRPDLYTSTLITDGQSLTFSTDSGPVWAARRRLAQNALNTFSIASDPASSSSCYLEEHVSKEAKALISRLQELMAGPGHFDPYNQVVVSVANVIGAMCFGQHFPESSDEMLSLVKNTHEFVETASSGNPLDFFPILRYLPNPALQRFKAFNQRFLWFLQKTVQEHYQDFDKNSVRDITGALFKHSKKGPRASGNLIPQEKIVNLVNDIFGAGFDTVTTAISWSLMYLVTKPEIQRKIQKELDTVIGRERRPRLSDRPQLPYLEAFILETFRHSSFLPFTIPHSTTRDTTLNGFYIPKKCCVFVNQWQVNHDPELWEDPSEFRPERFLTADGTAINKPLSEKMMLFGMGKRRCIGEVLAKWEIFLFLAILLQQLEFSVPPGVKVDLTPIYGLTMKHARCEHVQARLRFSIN

[20] = growth suppression of beta-catenin-knockout colon cells, dose response, cell-based, HCT116, human colon tumor (AID 1045); assay type: functional;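 note: HCT116 colon tumor cells with beta catenin knocked out; cells exposed to compound for 60 hours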
[21] = growth suppression of PTEN-null colon cells, dose response, cell-based, HCT116 PTEN knockout (AID 1047); assay type: functional;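 note: HCT116 colon tumor cells with PTEN knocked out; cells exposed to compound for 60 hours before readout; potency for loss of cell viability measured by luminescence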

T1 sequence (P08684 whole entry): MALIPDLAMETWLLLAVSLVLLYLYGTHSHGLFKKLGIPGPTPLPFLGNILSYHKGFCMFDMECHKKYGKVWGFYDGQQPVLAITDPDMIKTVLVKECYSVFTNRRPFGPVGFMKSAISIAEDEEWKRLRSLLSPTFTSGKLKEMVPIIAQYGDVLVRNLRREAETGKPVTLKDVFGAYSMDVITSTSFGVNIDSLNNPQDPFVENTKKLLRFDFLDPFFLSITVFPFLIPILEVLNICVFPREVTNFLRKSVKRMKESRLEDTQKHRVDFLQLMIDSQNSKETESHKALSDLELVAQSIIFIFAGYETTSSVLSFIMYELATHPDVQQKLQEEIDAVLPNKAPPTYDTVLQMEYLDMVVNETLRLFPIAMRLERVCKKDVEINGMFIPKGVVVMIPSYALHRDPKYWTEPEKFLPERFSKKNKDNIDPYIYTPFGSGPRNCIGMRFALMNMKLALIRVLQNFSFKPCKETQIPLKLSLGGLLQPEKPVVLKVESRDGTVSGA
Voltage-dependent T-type calcium channel subunit alpha-1H, sequence (O95180 whole entry): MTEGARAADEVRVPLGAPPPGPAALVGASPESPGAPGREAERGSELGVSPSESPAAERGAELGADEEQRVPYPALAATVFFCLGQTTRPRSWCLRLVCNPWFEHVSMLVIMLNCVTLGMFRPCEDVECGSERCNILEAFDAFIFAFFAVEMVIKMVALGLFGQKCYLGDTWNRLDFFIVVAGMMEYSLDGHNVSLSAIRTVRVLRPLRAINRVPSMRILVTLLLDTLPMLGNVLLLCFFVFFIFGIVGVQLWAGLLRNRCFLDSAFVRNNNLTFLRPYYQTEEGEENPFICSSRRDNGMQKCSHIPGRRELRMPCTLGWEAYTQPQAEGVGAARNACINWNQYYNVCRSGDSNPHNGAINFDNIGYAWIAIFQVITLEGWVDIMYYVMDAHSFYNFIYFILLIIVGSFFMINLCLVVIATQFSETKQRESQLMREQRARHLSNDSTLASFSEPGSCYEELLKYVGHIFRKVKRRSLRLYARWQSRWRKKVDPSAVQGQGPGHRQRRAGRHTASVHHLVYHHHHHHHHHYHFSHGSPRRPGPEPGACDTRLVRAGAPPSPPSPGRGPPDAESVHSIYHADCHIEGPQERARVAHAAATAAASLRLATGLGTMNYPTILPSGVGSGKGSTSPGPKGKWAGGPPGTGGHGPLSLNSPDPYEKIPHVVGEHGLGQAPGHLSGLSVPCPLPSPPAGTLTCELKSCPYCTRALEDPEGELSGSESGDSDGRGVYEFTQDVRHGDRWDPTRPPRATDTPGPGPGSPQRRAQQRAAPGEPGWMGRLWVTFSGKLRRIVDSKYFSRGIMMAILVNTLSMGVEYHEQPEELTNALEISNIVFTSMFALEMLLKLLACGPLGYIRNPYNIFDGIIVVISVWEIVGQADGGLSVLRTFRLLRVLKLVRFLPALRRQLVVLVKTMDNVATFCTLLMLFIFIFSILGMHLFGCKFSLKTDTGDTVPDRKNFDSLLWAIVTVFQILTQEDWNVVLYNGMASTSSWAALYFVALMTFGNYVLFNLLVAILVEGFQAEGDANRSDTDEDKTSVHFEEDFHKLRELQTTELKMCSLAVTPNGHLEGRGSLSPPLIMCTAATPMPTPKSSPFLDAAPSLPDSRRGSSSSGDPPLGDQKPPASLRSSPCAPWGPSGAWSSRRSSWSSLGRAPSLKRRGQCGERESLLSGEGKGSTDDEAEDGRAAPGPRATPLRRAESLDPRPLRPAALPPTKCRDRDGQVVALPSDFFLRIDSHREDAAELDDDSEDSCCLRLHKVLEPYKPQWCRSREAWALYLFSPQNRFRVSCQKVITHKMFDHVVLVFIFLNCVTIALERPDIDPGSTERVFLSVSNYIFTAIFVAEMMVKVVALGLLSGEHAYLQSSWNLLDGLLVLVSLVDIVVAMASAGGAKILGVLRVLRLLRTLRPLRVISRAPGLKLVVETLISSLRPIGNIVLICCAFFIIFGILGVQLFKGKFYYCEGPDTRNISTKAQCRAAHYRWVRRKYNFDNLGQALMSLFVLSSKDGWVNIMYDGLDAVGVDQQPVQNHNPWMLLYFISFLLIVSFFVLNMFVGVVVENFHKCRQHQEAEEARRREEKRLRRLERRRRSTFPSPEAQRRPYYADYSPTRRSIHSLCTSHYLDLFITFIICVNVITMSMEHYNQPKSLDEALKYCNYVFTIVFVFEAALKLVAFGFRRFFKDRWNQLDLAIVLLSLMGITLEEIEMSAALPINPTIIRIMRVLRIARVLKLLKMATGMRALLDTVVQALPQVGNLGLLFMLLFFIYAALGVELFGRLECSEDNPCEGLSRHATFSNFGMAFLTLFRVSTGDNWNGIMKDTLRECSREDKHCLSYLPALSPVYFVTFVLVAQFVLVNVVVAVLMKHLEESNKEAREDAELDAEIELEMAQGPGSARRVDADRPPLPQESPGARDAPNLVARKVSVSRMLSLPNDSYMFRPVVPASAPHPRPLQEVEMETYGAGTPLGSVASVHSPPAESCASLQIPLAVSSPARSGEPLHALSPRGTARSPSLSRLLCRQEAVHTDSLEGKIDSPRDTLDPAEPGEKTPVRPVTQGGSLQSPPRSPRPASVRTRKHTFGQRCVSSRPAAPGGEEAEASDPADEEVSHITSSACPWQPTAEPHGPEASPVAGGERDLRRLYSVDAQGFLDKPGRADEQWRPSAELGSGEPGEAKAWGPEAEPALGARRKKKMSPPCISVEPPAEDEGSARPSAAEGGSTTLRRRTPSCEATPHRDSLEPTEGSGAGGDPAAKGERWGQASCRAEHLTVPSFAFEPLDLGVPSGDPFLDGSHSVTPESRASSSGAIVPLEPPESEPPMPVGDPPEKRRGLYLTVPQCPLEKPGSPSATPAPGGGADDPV
Paired box protein Pax-8, sequence (Q06710 whole entry): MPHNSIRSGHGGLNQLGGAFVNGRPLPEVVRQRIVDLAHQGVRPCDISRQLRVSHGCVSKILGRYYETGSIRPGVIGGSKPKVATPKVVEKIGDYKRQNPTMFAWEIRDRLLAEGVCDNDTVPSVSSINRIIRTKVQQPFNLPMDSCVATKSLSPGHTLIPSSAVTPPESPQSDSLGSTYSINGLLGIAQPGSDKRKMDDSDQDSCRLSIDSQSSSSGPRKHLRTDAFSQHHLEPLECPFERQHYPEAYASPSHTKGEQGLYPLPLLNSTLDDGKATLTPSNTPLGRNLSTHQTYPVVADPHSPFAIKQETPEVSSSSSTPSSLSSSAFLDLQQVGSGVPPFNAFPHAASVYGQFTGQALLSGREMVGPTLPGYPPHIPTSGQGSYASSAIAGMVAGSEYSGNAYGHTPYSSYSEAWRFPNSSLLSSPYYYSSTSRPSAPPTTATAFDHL
Cytochrome P450 2D6, sequence (P10635 whole entry): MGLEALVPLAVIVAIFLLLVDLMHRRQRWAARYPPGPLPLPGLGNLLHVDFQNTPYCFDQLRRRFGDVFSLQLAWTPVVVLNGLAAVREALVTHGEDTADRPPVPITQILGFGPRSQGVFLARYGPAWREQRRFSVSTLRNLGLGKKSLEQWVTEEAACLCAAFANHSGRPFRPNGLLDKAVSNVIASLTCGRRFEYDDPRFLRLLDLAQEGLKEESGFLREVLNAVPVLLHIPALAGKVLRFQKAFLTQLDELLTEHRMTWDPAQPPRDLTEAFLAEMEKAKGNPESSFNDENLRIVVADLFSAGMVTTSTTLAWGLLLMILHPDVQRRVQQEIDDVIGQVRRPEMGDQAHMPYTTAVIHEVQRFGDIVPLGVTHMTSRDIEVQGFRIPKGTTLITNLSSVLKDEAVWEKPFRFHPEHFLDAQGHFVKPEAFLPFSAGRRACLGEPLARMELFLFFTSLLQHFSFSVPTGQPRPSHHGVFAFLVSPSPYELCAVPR

O=C(NCc1ccc(F)cc1)C1CCN(S(=O)(=O)N2CCOCC2)CC1
EC50 (cells [1]): > 350 µM (not active) | EC50 (cells [2]): > 350 µM (not active)

O=C(NC(=S)Nc1ccccn1)c1cccc([N+](=O)[O-])c1
EC50 (cells [1]): > 350 µM (not active) | EC50 (cells [2]): > 350 µM (not active)

Nc1ccn([C@@H]2O[C@H](CO)[C@@H](OP(=O)(O)O)[C@H]2O)c(=O)n1
AC50 (Cytochrome P450 3A4 [3]): 7.94 µM (inconclusive)

COc1ccccc1-c1ccc2c(c1)[C@H]1[C@H](CCN1C(=O)C1CCCC1)[C@@H](CO)N2
AC50 [4]: 4.88 µM (active)

COc1ccc(CCNC(=O)c2cc(-c3cccs3)on2)cc1OC
EC50 (cells [1]): > 350 µM (not active) | EC50 (cells [2]): > 350 µM (not active)

COc1ccc(S(=O)(=O)Nc2ccc3c(c2)C(=O)N([C@H](C)CO)C[C@@H](C)[C@H](CN(C)S(=O)(=O)c2ccc(F)cc2)OCCCC[C@H](C)O3)cc1
AC50 (Paired box protein Pax-8): 4.65 µM (active) | AC50 [5]: > 70 µM (inactive)

CCn1ncc(C2=NOC(C(=O)Nc3ccc4c(c3)OCO4)C2)c1C (stereo not given)
EC50 (cells [1]): > 350 µM (not active) | EC50 (cells [2]): > 350 µM (not active)

C[C@@H]1CN([C@@H](C)CO)C(=O)c2cc(NS(=O)(=O)c3cccs3)ccc2O[C@@H](C)CCCCO[C@H]1CN(C)Cc1ccc(C(F)(F)F)cc1
AC50 (Paired box protein Pax-8): 25.2 µM (active) | AC50 [6]: 44 µM (active)

CCCc1c(O)nc(SCCN(CCC)CCC)nc1O
EC50 [7]: 2.66 µM (active)

COC(=O)c1ccc(C(S)=NCC2(N(C)C)CCCCC2)cc1
EC50 [7]: 5.31 µM (active)

Cc1nn(Cc2ccccc2)c(Cl)c1C(=O)OCc1nnc(-c2ccccc2)o1
EC50 [8]: 30.4 µM (active)

Cn1c(=O)c(C(=O)Nc2ccccn2)c(O)c2ccccc21
CC50 [9]: 19 µM (active) | IC50 (cells [10]): 11.1 µM (active) | CC50 [11]: > 20 µM (active) | CC50 [12]: 11.3 µM (active)

Nc1cc(=O)[nH]c(=O)n1Cc1ccccc1
AC50 (Cytochrome P450 3A4 [3]): 25.1 µM (inconclusive)

CCCCCn1c(=O)c(C(=O)Nc2nc(CC(=O)OCC)cs2)c(O)c2ccccc21
CC50 [9]: 11.1 µM (active) | IC50 (cells [10]): 2.79 µM (active) | CC50 [11]: > 20 µM (active) | CC50 [12]: 11.8 µM (active)

O=C(NCc1ccccc1)C1=C[C@@H](C2CCCCC2)C[C@@H](OCc2ccc(CO)cc2)O1
EC50 [7]: 2.37 µM (active)

Clc1ccc(-n2ncc3c(N4CCCC4)ncnc32)cc1
AC50 (HEK293): 1.32 µM (active) | AC50 [13]: 2.04 µM (active) | AC50 [14]: 2.7 µM (active)

O=C(NCCSc1c[nH]c2ccccc12)c1ccc(Br)o1
EC50 (cells [1]): > 350 µM (not active) | EC50 (cells [2]): > 350 µM (not active)

CCc1nc(N2[C@H](C#N)[C@H](c3ccccc3-c3ccccc3F)[C@H]2CO)sc1C
AC50 [4]: 7.33 µM (active)

COc1ccc(-c2c(O)c3c(OC)c4c(cc3oc2=O)OC(C)(C)CC4)cc1 [DIHYDROROBUSTIC ACID]
AC50 (Cytochrome P450 3A4 [3]): 25.1 µM (inconclusive)

CCN1CCN(c2ccc(S(=O)(=O)N3CCCCC3)cc2NC(=O)CC(C)c2ccccc2)CC1 (stereo not given)
EC50 [7]: 1.06 µM (active)

COc1ccc(S(=O)(=O)N(Cc2ccccc2)Cc2nc(-c3ccccc3)no2)cc1
EC50 [8]: 6.27 µM (active)

C/C=C/OC(=O)NC(c1cccc(C)c1)[C@@]1(C(=O)OCC)CCCC1=O (stereo not given in full)
AC50 (Cytochrome P450 3A4 [3]): 1.26 µM (inconclusive)

O=C(NC(=S)NCCc1ccccc1)c1ccccc1
CC50 [11]: > 20 µM (active)

Cc1ccc(-n2nnc(-c3nccn3C)n2)cc1
AC50 [13]: 5.3 µM (active) | AC50 [14]: 6.81 µM (active) | AC50 [15]: > 52 µM (inactive) | AC50 [16]: > 52 µM (inactive)

O=C(Cc1cccnc1)N1CC[C@H]2[C@H](CO)Nc3ccc(C#Cc4cccc(F)c4)cc3[C@H]21
AC50 [4]: 6.12 µM (active)

CCCn1c(-c2ccc(F)cc2)nc2c(NCCN3CCCCC3)nc(C)nc21
AC50 (Cytochrome P450 3A4 [3]): 15.8 µM (inconclusive)

COc1ccc(CNCc2cn(-c3cccc(F)c3)nc2-c2ccc(C)o2)cc1
EC50 [7]: 5.96 µM (active)

O=C1CN(c2ccccc2)C(=O)N1
EC50 (cells [1]): > 350 µM (not active) | EC50 (cells [2]): > 350 µM (not active)

O=[N+]([O-])c1ccc2[nH]cnc2c1
AC50 (Cytochrome P450 3A4 [3]): 25.1 µM (inconclusive)

Cc1nn(-c2nc3ccccc3[nH]2)c(N)c1-c1ccc(Cl)cc1
CC50 [9]: 25.8 µM (active) | EC50 (Streptokinase A): > 150 µM (not active) | IC50 (cells [10]): 1.23 µM (active) | CC50 [17]: 31.1 µM (active) | CC50 [11]: 16.2 µM (active) | AC50 (Cytochrome P450 2D6): 12.6 µM (inconclusive) | AC50 (Cytochrome P450 3A4 [18]): 25.1 µM (inconclusive) | EC50 [19]: 2.42 µM (active) | CC50 [12]: 17.2 µM (active) | EC50 (Streptococcus): 8.49 µM (active)

O=C(CCc1ccccc1)N1CCN(c2ccc(Cl)cc2)CC1
EC50 [8]: 4.01 µM (active)

CC(C)(C)[S@@+]([O-])N1Cc2cc(C(=O)NCCN3CCCCC3)nc(-c3cccc(-c4cccc(C#N)c4)c3)c2[C@H]1CCO
AC50 [4]: 7.56 µM (active)

COCCCn1c(N)c(C(=O)Nc2sc3c(c2C(=O)OC)CCCC3)c2nc3ccccc3nc21
IC50 (H9c2): > 79 µM (inactive) | AC50 (Cytochrome P450 1A2): 10 µM (inconclusive) | EC50 [20]: 33.9 µM (active) | EC50 [21]: 27.8 µM (active)

O=c1c(O)c(-c2ccccc2)oc2cccc(O)c12
AC50 (Cytochrome P450 3A4 [3]): 12.6 µM (inconclusive)
